Experimental data published in ChEMBL document CHEMBL1201862, “PubChem BioAssay data set” (2004).
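Compound exposure: 48 hours, 5 concentrations, 96-well plates. GI50 is the concentration that inhibits growth by half.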 Calls of active or inactive are those of the source. No stated cut-off is given here; in the data, active = GI50 up to about 1.1 µM and inactive = higher.

Tests used:
Assay in all cases: NCI anticancer screen, dose series, 48 h
EKVX = test system: EKVX
SK-MEL-28 = test system: SK-MEL-28
A498 = test system: A498
NCI-H460 = test system: NCI-H460
Malme-3M = test system: Malme-3M
SF-539 = test system: SF-539
K562 = test system: K562
SF-268 = test system: SF-268
HCT-116 = test system: HCT-116
HL-60 = test system: HL-60
SN12C = test system: SN12C
ACHN = test system: ACHN
U-251 = test system: U-251
PC-3 = test system: PC-3
OVCAR-8 = test system: OVCAR-8
SK-OV-3 = test system: SK-OV-3
Hs-578T = test system: Hs-578T
LOX IMVI = test system: LOX IMVI
MCF7 = test system: MCF7
CCRF-CEM = test system: CCRF-CEM

| Compound | GI50 (EKVX) | GI50 (SK-MEL-28) | GI50 (A498) | GI50 (NCI-H460) | GI50 (Malme-3M) | GI50 (SF-539) | GI50 (K562) | GI50 (SF-268) | GI50 (HCT-116) | GI50 (HL-60) | GI50 (SN12C) | GI50 (ACHN) | GI50 (U-251) | GI50 (PC-3) | GI50 (OVCAR-8) | GI50 (SK-OV-3) | GI50 (Hs-578T) | GI50 (LOX IMVI) | GI50 (MCF7) | GI50 (CCRF-CEM) |
| --- | --- | --- | --- | --- | --- | --- | --- | --- | --- | --- | --- | --- | --- | --- | --- | --- | --- | --- | --- | --- |
| NCC(O)CN.Oc1c(Cl)c(Cl)c(Cl)c(Cl)c1Cl | 14.8 µM (inactive) | 21.2 µM (inactive) | 17.8 µM (inactive) | 18.7 µM (inactive) | 17.5 µM (inactive) | 24.4 µM (inactive) | 27.9 µM (inactive) | 29.2 µM (inactive) | 18.2 µM (inactive) | 16 µM (inactive) | 20.3 µM (inactive) | 18.3 µM (inactive) | 18.8 µM (inactive) | 22 µM (inactive) | 20.2 µM (inactive) | 21.6 µM (inactive) | 33.9 µM (inactive) | 17.3 µM (inactive) | 32.9 µM (inactive) | – |
| CCOC(=O)CCc1c(C(=O)OCC)[nH]c(/C=C2/NC(=O)C(C)=C2CC)c1C | – | 13.7 µM (inactive) | 17.1 µM (inactive) | 32.7 µM (inactive) | 13 µM (inactive) | 19.5 µM (inactive) | 0.0494 µM (active) | 10.2 µM (inactive) | 13.1 µM (inactive) | 5.01 µM (inactive) | 16.9 µM (inactive) | 11.3 µM (inactive) | 11.2 µM (inactive) | 22.1 µM (inactive) | 31.9 µM (inactive) | 34.7 µM (inactive) | 25.1 µM (inactive) | 8.18 µM (inactive) | 5 µM (inactive) | – |
| CN=C(n1ccnc1)n1ccnc1 | > 100 µM (inactive) | > 100 µM (inactive) | > 100 µM (inactive) | > 100 µM (inactive) | > 100 µM (inactive) | > 100 µM (inactive) | > 100 µM (inactive) | > 100 µM (inactive) | > 100 µM (inactive) | > 100 µM (inactive) | > 100 µM (inactive) | – | > 100 µM (inactive) | > 100 µM (inactive) | > 100 µM (inactive) | > 100 µM (inactive) | > 100 µM (inactive) | > 100 µM (inactive) | > 100 µM (inactive) | > 100 µM (inactive) |
| N#CC12C(=O)N3C(=NC(c4ccccc4)NC3c3ccccc3)C1(C#N)C(c1ccccc1)NC1=C2CCC1 (stereo not given) | > 100 µM (inactive) | > 100 µM (inactive) | > 100 µM (inactive) | > 100 µM (inactive) | > 100 µM (inactive) | – | 63.5 µM (inactive) | > 100 µM (inactive) | > 100 µM (inactive) | > 100 µM (inactive) | > 100 µM (inactive) | > 100 µM (inactive) | > 100 µM (inactive) | > 100 µM (inactive) | > 100 µM (inactive) | > 100 µM (inactive) | > 100 µM (inactive) | > 100 µM (inactive) | > 100 µM (inactive) | > 100 µM (inactive) |
| O=C(NCc1ccccc1Cl)c1c(O)c2ccccc2[nH]c1=O | > 100 µM (inactive) | > 100 µM (inactive) | 15.9 µM (inactive) | 18.7 µM (inactive) | > 100 µM (inactive) | > 100 µM (inactive) | > 100 µM (inactive) | 72.1 µM (inactive) | 27.2 µM (inactive) | > 100 µM (inactive) | > 100 µM (inactive) | > 10 µM (inactive) | 18.7 µM (inactive) | 64.9 µM (inactive) | 75 µM (inactive) | – | 25.9 µM (inactive) | > 100 µM (inactive) | > 100 µM (inactive) | > 100 µM (inactive) |
| C=C1C2CC[C@@](C)(O)C2[C@H]2OC(=O)C(=C)[C@@H]2C[C@H]1O (stereo not given in full) | 29 µM (inactive) | 26 µM (inactive) | 41 µM (inactive) | – | 15.2 µM (inactive) | 14.2 µM (inactive) | 28.6 µM (inactive) | 49.2 µM (inactive) | 27 µM (inactive) | 37.2 µM (inactive) | 18.5 µM (inactive) | 10.8 µM (inactive) | 31.9 µM (inactive) | 34.4 µM (inactive) | 22.3 µM (inactive) | 29.1 µM (inactive) | 23.4 µM (inactive) | 15 µM (inactive) | 14.2 µM (inactive) | 2.56 µM (inactive) |
| Nc1n[nH]c2c(C(=O)Nc3ccc(Cl)cc3)c(N)n(N)c(=O)c12 | > 100 µM (inactive) | > 100 µM (inactive) | > 100 µM (inactive) | > 100 µM (inactive) | > 100 µM (inactive) | > 100 µM (inactive) | > 100 µM (inactive) | > 100 µM (inactive) | > 100 µM (inactive) | > 100 µM (inactive) | > 100 µM (inactive) | – | > 100 µM (inactive) | > 100 µM (inactive) | > 100 µM (inactive) | > 100 µM (inactive) | > 100 µM (inactive) | > 100 µM (inactive) | > 100 µM (inactive) | > 100 µM (inactive) |
| CCOc1cc(NC(C)=O)ccc1C(=O)NN1C(=O)C(Cl)C1c1ccc(O)c(OC)c1 (stereo not given) | 16.1 µM (inactive) | 16.9 µM (inactive) | 14.6 µM (inactive) | 16.4 µM (inactive) | 8 µM (inactive) | 11.4 µM (inactive) | 5.11 µM (inactive) | 14.7 µM (inactive) | 18.2 µM (inactive) | 15.7 µM (inactive) | 13.3 µM (inactive) | 16.6 µM (inactive) | – | 14.1 µM (inactive) | 24.4 µM (inactive) | 17.3 µM (inactive) | 16.7 µM (inactive) | 2.17 µM (inactive) | 13.8 µM (inactive) | 4.67 µM (inactive) |
| N#CCCOc1cccc(C2(N3CCCCC3)CCCCC2)c1 | > 100 µM (inactive) | > 100 µM (inactive) | > 100 µM (inactive) | – | > 100 µM (inactive) | > 100 µM (inactive) | > 100 µM (inactive) | > 100 µM (inactive) | > 100 µM (inactive) | > 100 µM (inactive) | > 100 µM (inactive) | > 100 µM (inactive) | > 100 µM (inactive) | > 100 µM (inactive) | > 100 µM (inactive) | > 100 µM (inactive) | > 100 µM (inactive) | > 100 µM (inactive) | > 100 µM (inactive) | > 100 µM (inactive) |
| Cc1n[nH]c(=O)n1/N=C\CC/C=N\n1c(C)n[nH]c1=O | > 100 µM (inactive) | > 100 µM (inactive) | > 100 µM (inactive) | – | > 100 µM (inactive) | > 100 µM (inactive) | > 100 µM (inactive) | > 100 µM (inactive) | > 100 µM (inactive) | > 100 µM (inactive) | > 100 µM (inactive) | > 100 µM (inactive) | > 100 µM (inactive) | > 100 µM (inactive) | > 100 µM (inactive) | > 100 µM (inactive) | > 100 µM (inactive) | > 100 µM (inactive) | > 100 µM (inactive) | > 100 µM (inactive) |
| N#Cc1c(-c2ccccc2)c2c([nH]c1=O)-c1cc([N+](=O)[O-])ccc1CCC2 | 26.7 µM (inactive) | 29.8 µM (inactive) | 19 µM (inactive) | 30.4 µM (inactive) | 51.8 µM (inactive) | 27.7 µM (inactive) | 34.1 µM (inactive) | 26.6 µM (inactive) | 30.3 µM (inactive) | 35.2 µM (inactive) | 44.1 µM (inactive) | 24.8 µM (inactive) | 33.3 µM (inactive) | 39.7 µM (inactive) | 34.3 µM (inactive) | 36.3 µM (inactive) | 68.2 µM (inactive) | 25.5 µM (inactive) | 27.7 µM (inactive) | 37.6 µM (inactive) |
| COc1ccc2c(c1)N=C(N)n1c(nc3ccccc31)S2 | – | 70.1 µM (inactive) | 32.1 µM (inactive) | 8.18 µM (inactive) | 68.9 µM (inactive) | 34.6 µM (inactive) | 10.9 µM (inactive) | 19.5 µM (inactive) | 3.65 µM (inactive) | 3.79 µM (inactive) | 51.6 µM (inactive) | 21.3 µM (inactive) | 6.27 µM (inactive) | 7.24 µM (inactive) | – | 30.5 µM (inactive) | 58.1 µM (inactive) | 15.9 µM (inactive) | 10.9 µM (inactive) | 2.99 µM (inactive) |
| CC(C)(C)OC(=O)NCC(c1c[nH]c2ccc(Br)cc12)c1c[nH]c2ccc(Br)cc12 | 4.52 µM (inactive) | 16.3 µM (inactive) | 14.5 µM (inactive) | – | 18.3 µM (inactive) | 14.4 µM (inactive) | 15.9 µM (inactive) | 8.43 µM (inactive) | 4.14 µM (inactive) | 11.7 µM (inactive) | 5.13 µM (inactive) | 5.96 µM (inactive) | 6.43 µM (inactive) | 3.55 µM (inactive) | 13.4 µM (inactive) | – | 19.3 µM (inactive) | 7.03 µM (inactive) | 5.41 µM (inactive) | 5.12 µM (inactive) |
| BC(=O)NC(CC(C)C)C(=O)NC1c2ccsc2C(=O)C1O.CN(C)C (stereo not given) | > 100 µM (inactive) | > 100 µM (inactive) | > 100 µM (inactive) | > 100 µM (inactive) | > 100 µM (inactive) | > 100 µM (inactive) | > 100 µM (inactive) | > 100 µM (inactive) | > 100 µM (inactive) | > 100 µM (inactive) | > 100 µM (inactive) | > 100 µM (inactive) | > 100 µM (inactive) | > 100 µM (inactive) | > 100 µM (inactive) | > 100 µM (inactive) | > 100 µM (inactive) | > 100 µM (inactive) | > 100 µM (inactive) | > 100 µM (inactive) |
